We go through 35 compounds from patent US20140249196A1, “N-BENZYLBENZIMIDAZOLE MODULATORS OF PPARG” (priority 2011, published 2014).

One assay deals with T1, GST-PPARG-LBD (Homo sapiens, UniProt P37231).
T1 construct: A mixture of 5 nM GST-PPARG-LBD; purchased Invitrogen
T1 sequence (P37231 238-503 limits assumed): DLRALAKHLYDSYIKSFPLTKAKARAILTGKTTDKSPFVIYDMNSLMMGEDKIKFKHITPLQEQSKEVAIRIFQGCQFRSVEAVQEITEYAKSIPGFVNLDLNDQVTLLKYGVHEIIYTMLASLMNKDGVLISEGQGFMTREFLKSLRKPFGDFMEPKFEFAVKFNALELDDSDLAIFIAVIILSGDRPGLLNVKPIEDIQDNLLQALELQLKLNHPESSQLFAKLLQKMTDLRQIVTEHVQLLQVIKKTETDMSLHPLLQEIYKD
Put plainly: Lanthascreen PPARG competitive binding assay (Invitrogen). The note with it: Table 3; for IC50: read-out: IC50 (nM) Lantha. The procedure: Lanthascreen PPARG Competitive Binding Assay (Invitrogen)
The assay was performed according to manufacturer protocol. A mixture of 5 nM GST-PPARG-LBD, 5 nM Tb-GST-antibody, 5 nM Fluormone Pan-PPAR Green, and serial dilutions of the experimental compound, beginning at 10 μM downwards, was added to wells of black 384-well low-volume plates (Greiner) to a total volume of 18 μL. All dilutions were made in TR-FRET assay buffer C. DMSO at 2% final concentration was used as a no-ligand control. Experiment was performed in triplicate, and incubated for 2 hours in the dark prior to assay read in Perkin Elmer ViewLux ultra HTS microplate reader. FRET signal was measured by excitation at 340 nm and emission at 520 nm for fluorescein and 490 nm for terbium. Fold change over DMSO was calculated using GraphPad Prism Software (La Jolla, Calif.) by calculating 520 nm/490 nm ratio. Graphs were plotted as fold change of FRET signal for compound treatment over DMSO-only control.

In assay [1] the target is T2, PPARG (Homo sapiens, UniProt P37231).
T2 construct: own inference from the column head
T2 sequence (P37231 1-505): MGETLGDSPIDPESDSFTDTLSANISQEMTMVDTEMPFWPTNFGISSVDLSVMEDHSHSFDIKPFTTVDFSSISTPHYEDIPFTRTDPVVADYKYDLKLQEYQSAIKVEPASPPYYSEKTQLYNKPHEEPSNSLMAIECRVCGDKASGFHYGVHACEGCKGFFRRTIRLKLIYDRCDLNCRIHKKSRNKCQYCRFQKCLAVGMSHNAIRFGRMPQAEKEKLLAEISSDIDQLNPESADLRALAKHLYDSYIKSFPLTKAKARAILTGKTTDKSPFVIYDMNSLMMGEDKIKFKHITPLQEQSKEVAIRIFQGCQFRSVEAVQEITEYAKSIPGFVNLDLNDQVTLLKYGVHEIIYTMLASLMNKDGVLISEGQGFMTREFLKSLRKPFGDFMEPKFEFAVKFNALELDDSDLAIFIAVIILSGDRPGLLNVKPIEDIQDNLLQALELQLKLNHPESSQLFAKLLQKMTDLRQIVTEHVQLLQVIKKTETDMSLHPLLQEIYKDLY
Nature of the assay: Gal4 transactivation assay. The class given is cell-based. The following applies: Table 3.

The subject of assay [2] is PPARG. Nature of the assay: Cell-based transactivation assay (3xPPRE-luciferase reporter, COS-1 cells co-transfected with PPARG). More on the design: species or system murine or human (not said which for the values). Here is the method:
Cell-Based Transactivation Assay: PPRE is a DNA that contains a binding site for PPARG; thus PPRE is a PPAR response element, used herein as a promoter reporter. The binding site is a DR1 response element with the sequence [NT] repeated 3 times in tandem and then fused to a construct for luciferase. Thus, PPRE is the basis of the cell based transactivation assay described below. The plasmid DNA is co-transfected along with a plasmid for PPARG into COS-1 cells. After an overnight incubation, cells are treated with DMSO or compounds. […] Transfected cells were plated in white Perkin Elmer 384-well plates and incubated 4 hours. […] After 18 hour incubation, treated cells were developed with Brite Lite Plus (Perkin Elmer) and read in 384-well Luminescence Perkin Elmer EnVision Multilabel plate reader. Graphs were plotted in triplicate in GraphPad Prism Software as fold change of treated cells over DMSO control cells.
On the technique in general: Reporter assays use an easily measured gene product as a stand-in for the process of interest.

As a reminder, the IC50 is the concentration needed to halve the response being measured. In general, EC50 refers to the concentration that produces a half-maximal response. Read a high EC50 as a less potent agent.

`COCCCNC(=O)c1ccc2c(c1)ncn2Cc1ccc(Cl)cc1` [Cpd 22]: the half-maximal inhibitory concentration (IC50) on GST-PPARG-LBD was determined as 7330 nM. In the case of `CC(C)CC(C)NC(=O)c1ccc2c(c1)ncn2Cc1ccc(Cl)cc1` (stereo not drawn) [Cpd 31], on PPARG [1], the EC50 worked out at 12200 nM, the “GL4 % act 1 μM” value is recorded as 34.29% and the “GL4 % act 10 μM” value stood at 68.66%. Also, the IC50 on GST-PPARG-LBD was determined as 31.8 nM. In the case of `C[C@@H](CO)NC(=O)c1ccc2c(c1)ncn2Cc1ccc(Cl)cc1` [Cpd 46], at GST-PPARG-LBD, the 50% inhibitory concentration (IC50) stood at 24400 nM. Consider `CC(C)c1cccc([C@H](C)NC(=O)c2ccc3c(c2)ncn3Cc2ccc(Cl)nc2)c1` [Cpd 49], for which the concentration for half-maximal inhibition (IC50) on GST-PPARG-LBD worked out at 2050 nM.

For `CC(C)c1cccc([C@H](C)NC(=O)c2ccc3c(c2)ncn3[C@@H](C)c2ccc(Cl)cc2)c1` [Cpd 15], the IC50 on GST-PPARG-LBD worked out at 2520 nM. Same read-out and setting: with `COCCOCc1ccc2c(c1)ncn2Cc1ccc(Cl)cc1` [Cpd 36] the figure was 13700 nM; with `CCOCCNC(=O)c1ccc2c(c1)ncn2Cc1ccc(Cl)cc1` [Cpd 23], 3710 nM. Consider `CC[C@H](NC(=O)c1ccc2c(c1)ncn2Cc1ccc(Cl)cc1)c1ccccc1` [Cpd 52], for which, at PPARG [1], the EC50 was found to be 99.3 nM and the “GL4 % act 1 μM” value came to 30.41%. Besides, on GST-PPARG-LBD, the half-inhibitory concentration (IC50) was determined as 403 nM.

For the compound `O=C(NCC1CC1)c1ccc2c(c1)ncn2Cc1ccc(Cl)cc1` [Cpd 20], the IC50 on GST-PPARG-LBD worked out at 18300 nM.

As to `CC(C)CCC(C)NC(=O)c1ccc2c(c1)ncn2[C@H](C)c1ccc(Cl)cc1` (stereo partly drawn) [Cpd 48], at GST-PPARG-LBD, the IC50 turned out to be 1260 nM. On to `CC(C)CCC(C)NC(=O)c1ccc2c(c1)ncn2Cc1ccc(Cl)cc1` (stereo not drawn) [Cpd 30], for which, on PPARG [1], the EC50 came out at 636 nM, the “GL4 % act 1 μM” value is on record as 96.37% and the “GL4 % act 10 μM” value worked out at 109.37%. Moreover, the IC50 on GST-PPARG-LBD was found to be 42.3 nM. Consider `CN(CCOc1ccc(CC2SC(=O)NC2=O)cc1)c1ccccn1` (stereo not drawn) [rosiglitazone], for which, in the assay with PPARG [2] (over DMSO), the “activation of the PPRE reporter” value is listed as “about 5 fold”.

Regarding `CC(C)c1cccc([C@H](C)NC(=O)c2ccc3c(c2)ncn3[C@H](C)c2ccc(Cl)cc2)c1` [Cpd 41], the half-inhibitory concentration (IC50) at GST-PPARG-LBD worked out at 11000 nM.

Take `COC[C@@H](NC(=O)c1ccc2c(c1)ncn2Cc1ccc(Cl)cc1)C(C)C` [Cpd 39]: on PPARG [1], the response was half-maximal at 442 nM (EC50) and the “GL4 % act 1 μM” value was 62.18%. Besides, at GST-PPARG-LBD, the half-maximal inhibitory concentration (IC50) was found to be 612 nM. The matching figures for `CC[C@@H](NC(=O)c1ccc2c(c1)ncn2Cc1ccc(Cl)cc1)c1ccccc1` [Cpd 51]: 3910 nM, 76.12% and 1050 nM. For `CC(C)[C@@H](CO)NC(=O)c1ccc2c(c1)ncn2Cc1ccc(Cl)cc1` [Cpd 40], the IC50 at GST-PPARG-LBD stood at 3250 nM. For `CC(C)c1cccc([C@H](C)NC(=O)c2ccc3c(c2)ncn3Cc2ccc(Cl)cc2)c1` [Cpd 17], the IC50 on GST-PPARG-LBD turned out to be 4400 nM. In the case of `COC(=O)[C@@H](NC(=O)c1ccc2c(c1)ncn2Cc1ccc(Cl)cc1)c1ccccc1` [Cpd 43], at PPARG [1], the EC50 turned out to be 752 nM and the “GL4 % act 1 μM” value is 51.21%. Besides, the IC50 at GST-PPARG-LBD stood at 237 nM.

For `COCCNC(=O)c1ccc2c(c1)ncn2Cc1ccc(Cl)cc1` [Cpd 24], the half-inhibitory concentration (IC50) at GST-PPARG-LBD came to 6360 nM.

Regarding `Cc1nc2cc(C(=O)N[C@@H](C)c3cccc(Br)c3)ccc2n1Cc1cccc(O[C@H](C)C(=O)O)c1` [Cpd 21], the “IC50 (nM) Lantha” value at GST-PPARG-LBD was 1e+08 nM. Regarding `CCc1nc2cc(C(=O)N[C@@H](C)c3cccc(C(C)C)c3)ccc2n1Cc1cccc(O[C@@H](C)C(=O)O)c1` [Cpd 32], the IC50 on GST-PPARG-LBD was 2030 nM.

In the case of `CC(C)c1cccc([C@@H](C)NC(=O)c2ccc3c(c2)ncn3Cc2ccc(Cl)cc2)c1` [Cpd 50], at PPARG [1], the EC50 is 44.1 nM and the “GL4 % act 1 μM” value was 54.52%. Besides, the half-maximal inhibitory concentration (IC50) on GST-PPARG-LBD worked out at 162 nM. For the compound `CC(C)CC(C)NC(=O)c1ccc2c(c1)ncn2[C@H](C)c1ccc(Cl)cc1` (stereo partly drawn) [Cpd 47], at GST-PPARG-LBD, the IC50 stood at 8400 nM.

On to `C[C@@H](CC1CCOCC1)NC(=O)c1ccc2c(c1)ncn2Cc1ccc(Cl)cc1` [Cpd 19], for which the IC50 on GST-PPARG-LBD is 2100 nM. With `COC[C@H](C)NC(=O)c1ccc2c(c1)ncn2Cc1ccc(Cl)cc1` [Cpd 25], the half-inhibitory concentration (IC50) on GST-PPARG-LBD was determined as 5220 nM. On to `COc1ccc(C(=O)n2c(C)c(Cc3cccc(O[C@@H](C)C(=O)O)c3)c3cc(OC(F)(F)F)ccc32)cc1` [MRL24], for which, in the assay on PPARG [2] (relative to rosiglitazone), the “transactivation of the reporter, % of rosiglitazone response” value is “about 25%”.

`CCCCNC(=O)c1ccc2c(c1)ncn2Cc1ccc(Cl)cc1` [Cpd 28]: the IC50 on GST-PPARG-LBD was determined as 1420 nM. On the same count and under the same terms, with `O=C(NCC[C@H]1CCO1)c1ccc2c(c1)ncn2Cc1ccc(Cl)cc1` [Cpd 26] the figure was 6770 nM; with `O=C(N[C@H](CO)c1ccccc1)c1ccc2c(c1)ncn2Cc1ccc(Cl)cc1` [Cpd 42], 921 nM; with `COC(=O)[C@H](C)NC(=O)c1ccc2c(c1)ncn2Cc1ccc(Cl)cc1` [Cpd 38], 2160 nM. The same measure, in the same setting: to `O=C(NCC1CCC1)c1ccc2c(c1)ncn2Cc1ccc(Cl)cc1` [Cpd 29] belongs 7950 nM. As for `C[C@H](NC(=O)c1ccc2c(c1)ncn2Cc1ccc(Cl)cc1)c1ccc(Br)cc1` [Cpd 16], the half-maximal inhibitory concentration (IC50) on GST-PPARG-LBD turned out to be 2380 nM. With `CCCc1nc2cc(C(=O)N[C@@H](C)c3cccc(C(C)C)c3)ccc2n1Cc1cccc(O[C@@H](C)C(=O)O)c1` [Cpd 35], the concentration for half-maximal inhibition (IC50) at GST-PPARG-LBD came to 2410 nM. The same measure, in the same setting: with `CC(C)CCNC(=O)c1ccc2c(c1)ncn2Cc1ccc(Cl)cc1` [Cpd 34] the figure was 1090 nM; with `Cc1nc2cc(C(=O)N[C@@H](C)c3cccc(C(C)C)c3)ccc2n1Cc1cccc(O[C@@H](C)C(=O)O)c1` [Cpd 33], 2420 nM.
